Measurements as given in patent US12031151B2, “Methods of improving protein titer in cell culture” (Regeneron Pharmaceuticals, Inc., priority 2021, dated 2024).

Tested on: protein titer of dupilumab production cell culture
Test: LC-MS analysis of HEPES related impurities and titer correlation evaluation across cell culture production runs
Format: cell-based
Settings: for Pearson Correlation Coefficient, 5 HEPES salt lots / Pearson Correlation Coefficient, 7 CDM1B lots (Geel) / Pearson Correlation Coefficient, 20 CDM1B lots (Rens): correlation of impurity abundance with final titer; for Pearson Correlation Coefficient, 7 CDM1B lots (Geel): 7 CDM1B media lots; for Pearson Correlation Coefficient, 20 CDM1B lots (Rens): 20 CDM1B media lots; for correlation of impurity abundance with titer: dupilumab production runs, Site 1 (20 runs) and Site 2 (7 runs)
Protocol: ANOVA analysis of the lot genealogy of 53 different components of a chemically defined media was performed between lots utilized in “high titer” performing cell culture runs and “low titer” performing cell culture runs. HEPES acid and salt were identified as “high risk” components, showing the strongest correlation with final titer (the correlation was stronger than the correlation between the titer and media as whole). HEPES also was identified as a “high risk component” in an independent risk-based analysis that considered the weight fractions of components in the media formulation, components' COA purity and their manufacturing methods.
Following identification of HEPES as a “high risk” component with strong correlation to final titer, an analysis of the chemical composition of HEPES buffer lots was performed, including LC-MS and titer correlations evaluations.
Large scale production runs were performed at multiple sites to produce dupilumab. […] Based on the findings, and in accordance with the inventions, improved protein titer may be obtained by using media having reduced HEPES related impurities, in accordance with the inventions.
FIG. 1 illustrates the relation between relative amounts of HEPES+[O2]−[H2] and protein titer. […] Summary of fit data is shown below each graph of FIGS. 2A and 2B.
FIG. 3 illustrates the relation between relative amounts of HEPES−[CH4] and protein titer. […] Summary of fit data is shown below each graph of FIGS. 4A and 4B.

SMILES | Pearson Correlation Coefficient, 5 HEPES salt lots | Pearson Correlation Coefficient, 7 CDM1B lots (Geel) | Pearson Correlation Coefficient, 20 CDM1B lots (Rens) | correlation of impurity abundance with titer
O=S(=O)(O)CC(O)O [2,2-Dihydroxyethane-sulfonic acid] | −0.85 | – | – | –
CC(=O)NCS(=O)(=O)O [Acetamidomethane-sulfonic acid] | −0.81 | −0.34 | −0.78 | –
O=CN(CCO)CCN(C=O)CCS(=O)(=O)O [HEPES+[O2]−[H2]] | −0.82 | −0.68 | −0.77 | negative correlation with titer
O=CN1CCN(CCS(=O)(=O)O)CC1 [HEPES−[CH4]] | −0.85 | −0.83 | −0.68 | negative correlation with titer
C=CS(=O)(=O)O [Vinylsulfonic acid] | −0.60 | 0.41 | 0.16 | –
